Assay results published in patent US20260232681A1, “CRYSTALLINE FORMS OF N-[4-[4-(4-MORPHOLINYL)-7H-PYRROLO[2,3-D]PYRIMIDIN-6- YL]PHENYL]-4-[[3(R)-[(L-OXO-2-PROPEN-L-YL)AMINO]-L-PIPERIDINYL]METHYL]-2-PYRIDINECARBOXAMIDE AS A COVALENT INHIBITOR OF MENIN-MLL INTERACTION” (BIOMEA FUSION, INC., priority 2023, published 2026).
“Also recorded” adds a separate entry of the source. Where two headings read alike, the source gives them in different places.

Key:
[1] = test system: patient-derived DLBCL Triple Hit Lymphoma (THL) and MYC-amplified PDX samples; test: Ex vivo DLBCL PDX samples (THL, MYC-amplified), six days; type: cell-based, human; settings: THL/R-CHOP-refractory and MYC amplification/R-EPOCH refractory profiles
Description: Compound A was tested against a THL cell line (VAL), and a DEL cell line (U2932). An expanded panel of DHL cell lines were tested for sensitivity to Compound A. Ex vivo patient samples of THL and MYC-amplified DLBCL were tested with Compound A. Sensitivity of THL and MYC-driven DLBCL in both in vitro and ex vivo models were compared with clinical reversible menin inhibitors. Compound A was tested against a panel of MM cell lines and ex vivo MM patient samples of p53del, 13qdel, and relapsed/refractory cases.
DLBCL cell line TOLEDO was cultured in the presence of Compound A or clinical reversible menin inhibitors for six and fourteen hours. Menin protein expression was reduced up to 60% at 1 μM by Compound A after fourteen hours compared to clinical reversible inhibitors at <20% at similar concentrations. Menin protein expression was measured by the Wes system and analyzed using the Compass software (automated western blotting, Protein Simple). Signal was normalized to GAPDH and referenced to DMSO control (FIG. 171E). DLBCL and MM cell lines were cultured with Compound A, bortezomib (PS-341), or DMSO for four days and cell proliferation was measured by Cell Titer Glo. Ex vivo studies of DLBCL and MM models were conducted by measurement of cell proliferation (Cell Titer Glo) after six days of treatment with Compound A, PS-341, or DMSO control.

[2] = test system: CLL samples isolated from patients; test: Ex vivo CLL patient samples, antileukemic activity; type: cell-based, human; settings: CLL ex vivo patient samples, 1 μM exposure
[3] = test system: type 2 diabetes mellitus adult subjects; test: Clinical study in healthy and type 2 diabetes mellitus subjects (SAD, food effect, MAD; Example 111); type: in vivo, human
Description: In Experimental Phase 1 (SAD cohorts), 40 healthy adult subjects were randomized into 4 dose escalating cohorts of 10. In each cohort, subjects were randomized at 7:3 (active and placebo) in sequential order. Each cohort was composed of 2 sentinel subjects randomized at 1:1 (active and placebo), followed by 8 additional subjects randomized at 3:1 (active and placebo). Doses were 100 mg, 200 mg, 400 mg, and 600 mg.
In Experimental Phase 1 (3-period crossover, food effect study), each cohort of 12 healthy adult subjects was randomized at 1:1:1:1:1:1 in a 3-period crossover study with 6 treatment sequences.
In Experimental Phase 2 (MAD cohorts), 1 cohort of 16 healthy adult subjects was randomized at 3:1 (active and placebo), and 7 cohorts of type 2 diabetes mellitus adult subjects were randomized at 5:1 (active and placebo) to obtain safety and efficacy data to identify the potential optimal biological dose (OBD) and a recommended Phase 2 dose (RP2D). Doses were 100 mg, 200 mg, 400 mg, and 600 mg.

[4] = test system: Human ex vivo PDX tissue models harboring KRAS mutations; test: Ex vivo KRAS-mutated PDX tissue viability (CellTiter Glo, six days); type: cell-based; settings: six-day treatment, all samples
Description: (§1) MOLM-13 and MiaPaCa-2 cells were incubated with Compound A for twenty-four hours and were analyzed by RNA-seq on an Illumina NextSeq 550 platform. […] Cell viability was measured using CellTiterGlo. Human ex vivo PDX tissue models harboring KRAS mutations were cultured with Compound A and clinical reversible menin inhibitors for six days. Cell viability was measured using CellTiter Glo.

KRAS and MEN1 expression = test: RNA-seq gene expression in MiaPaCa-2 cells; type: cell-based, human; set-up: dose or concentration left out as unconfirmed; settings: MiaPaCa-2 cells after twenty-four hours
Description: as §1

[5] = test system: Zucker Diabetic Fatty (ZDF) rats; test: Glycemic control and HbA1c in ZDF rats, 28-day dosing plus 28-day washout (Examples 104, 106); type: in vivo
Description: Rats were treated daily with Compound 10, liraglutide, or vehicle for twnety-eight days and monitored for an additional twenty-eight days post-treatment.
Zucker Diabetic Fatty (ZDF) rats were dosed daily with Compound 10, liraglutide, or vehicle for twenty-eight days (n=10 per group) and monitored for an additional twenty-eight days post last dose. Fasting blood glucose, insulin, C-peptide levels, HbA1c, oral glucose tolerance test (OGTT), and body weight were monitored during and post-treatment.
ZDF Rat Model—five treatment groups 1. Vehicle; 2. Compound 10 at 40 mg/kg; 3. Compound 10 at 85 mg/kg; 4. Compound 10 at 170 mg/kg; and 5. Liraglutide at 0.2 mg/kg; n=10 per group. Group 2 dose (40 mg/kg) was increased to 200 mg/kg on Day 17 for rest of the dosing phase. Daily dosing zero to twenty-eight days days QD→drug wash out twenty-eight to fifty-six days. Rats were monitored for the following parameters through dosing and wash out phases—body weight, fasting blood sugar, blood insulin, C-peptide, OGTT, and HbA1C.

[6] = test system: KRAS mutated cell lines (CRC, NSCLC, pancreatic); test: KRAS mutant cell line proliferation (CellTiter-Glo, four days); type: cell-based, human; settings: for GI50: Homo sapiens
Description: The inhibitory effect on cell proliferation was investigated in the human pancreas KRAS mutated cell lines MIA PaCa-2, HuP-T4, HPAF-II, human lung KRAS mutated cell line NCI-H358, and human colon KRAS mutated cell lines SW837, SW60, and NCI-H747. […] Cells were grown by adhering to culture flasks, and maintained at 70%-80% confluency.
ATP is present in all metabolically active cells and is considered as a marker for viable cells. […] The cell proliferation assay was performed using a 96-well plate format.
Eight concentrations of test compound were assessed in duplicate for each experimental run. 100% cell proliferation is represented by the untreated cells (0.2% DMSO).
200 μL of cell suspension were added to each well of a 96-well plate.
Cell viability was measured using CellTiterGlo. […] Cell viability was measured using CellTiter Glo.

C=CC(=O)N[C@@H]1CCCN(Cc2ccnc(C(=O)Nc3ccc(-c4cc5c(N6CCOCC6)ncnc5[nH]4)cc3)c2)C1 [Compound A, N-[4-[4-(4-morpholinyl)-7H-pyrrolo[2,3-d]pyrimidin-6-yl]phenyl]-4-[[3(R)-[(1-oxo-2-propen-1-yl)amino]-1-piperidinyl]methyl]-2-pyridinecarboxamide]
growth inhibition of ex vivo patient samples [1]: complete growth inhibition | cell lethality [2]: > 98% | episodes of symptomatic hypoglycemia ([3]; human patients): No episodes | severe or serious TEAEs ([3]; human subjects): No severe or serious TEAEs | safety profile ([3]; human subjects, 4 weeks of treatment): well-tolerated | growth of ex vivo preclinical models [4]: Complete abrogation of growth | KRAS and MEN1 expression levels (KRAS and MEN1 expression): marked reduction | glycemic control by oral glucose tolerance test (OGTT) ([5]; Day 25, versus vehicle): improved glycemic control | tolerability ([5]; daily for 28 days): tolerated Compound 10 well | HbA1c at all doses tested ([5]; effects lasting fifteen days after the last dose): significant reductions | 4-hour fasting blood glucose ([5]; high-dose arm, up to Day 29, listed as Compound 10): strong reduction; also recorded: sustained and significant reduction | GI50 ([6]; column 1: KRAS G12C, NSCLC (8), read-out: KRAS G12C GI50): 360 to 570 nM | GI50 ([6]; column 5: RAS WT, Pancreatic (4), read-out: RAS WT GI50): 430 to 830 nM | GI50 ([6]; column 8: KRAS G12D, Pancreatic (1) (second set of heads), read-out: KRAS G12D GI50): 370 to 570 nM | growth inhibition of KRAS-mutated cell lines compared to a known KRAS therapeutic ([6]; all cancer cell types tested): significantly greater growth inhibition | inhibition of growth ([6]; most of fourteen CRC, NSCLC and pancreatic KRAS mutated cell lines, four-day treatment): > 90%
